Source: article PMC2585100 (Retrovirology, 2008)
Where two headings read alike, the source gives them in different places.

Key:
[1] = set-up: method as in 2 sources, one per row (each row's own in cited_ref): ref 20 = [20]; PMID 17553560; doi:10.1016/j.ceca.2007.04.011; Yu H Alfsen A Tudor D Bomsel M The binding of HIV-1 gp41 membrane proximal domain to its mucosal receptor, galactosyl ceramide, is structure-dependent Cell Calcium 2008 43 73 82 17553560 10.1016/j.cec ||| ref 36 = [36]; PMID 17276993; doi:10.1074/jbc.M609148200; Liu S Jing W Cheung B Lu H Sun J Yan X Niu J Farmar J Wu S Jiang S HIV gp41 C-terminal heptad repeat contains multifunctional domains. Relation to mechanisms of action of anti-HIV peptides J Biol Chem; conditions: Table 1, left column; cited from earlier work
[2] = system: CD4+ CEM-NKr lymphocytic cell line; assay: Binding of peptides to CD4+ target cells (2F5 IgG, flow cytometry), cell line; set-up: species or system human; conditions: 1 h at room temperature, RPMI 10% FCS, micro-molar range
Procedure: (§1) Binding of peptides was evaluated using either the lymphocytic cell line CD4^+- CEM-NK^r (NK-resistant) cells (NIH AIDS Reagent Programm, USA)or PHA-activated CD4^+ T cells purified from peripheral blood of 5 healthy donors using human CD4^+ T cells enrichment kit (StemCell Technologies Inc., France). 5 × 10^5 cells were incubated with indicated concentrations of peptide for 1 h at room temperature in a total volume of 50 microliter/μl of RPMI 10%FCS. After 2 wahses in cold medium, bound peptide was detected with the human IgG 2F5 (10 microg/μg), or irrelevant human IgG as control, for 1 h at 37°C followed anti-human IgG-FITC mAb (1:1000, Jackson ImmunoResearch, France). Binding of peptides to CD4^+ cells was evaluated by flow cytometry (FACSCalibur, Becton Dickinson) on 10^4 events, gated by forward and side scatter and analyzed for FL1 (FITC channel) using the Cytomix RXP software.

[3] = system: T20-sensitive HIV-1 strains (pre-ENF and JRCSF); assay: Single-cycle infectivity assay, T20-sensitive strains, U373MG-CD4-CCR5-LTR-lacZ cells; assay type: cell-based; conditions: P5 more potent than T20
From the text: (§2) We constructed viruses bearing the envelope glycoproteins derived from virus populations present before and during T20 treatment of a patient who received T20 as part of a salvage therapy, as we reported earlier. […] Each chimeric proviral clone was obtained by replacing the AgeI-NheI fragment of a modified pNL4-3 vector (nt 6346 to 8287 in pNL4-3) by a AgeI-NheI PCR fragment amplified from the envelope subclone. Sequences of oligonucleotides used for PCR and site-directed mutagenesis can be provided upon request. […] [29].
(§3) These assays were performed as previously described. Two days before infection, U373MG-CD4-CCR5-LTR-lacZ cells were seeded into 96-well plates at a density of 2,000 cells/well. […] Forty hours after infection, cells were lysed using 100 μl/well of lysis buffer (5 mM MgCl2 and 0.1% NP-40 in 1× phosphate-buffered saline), prior to addition of 100 μl/well of chromogenic substrate (6 mM chlorophenol red-β-D-galactopyranoside; CPRG, Roche) in lysis buffer.

HIV-1Lai (X4 virus) = assay: Neutralization of HIV-1 infection of PBMC, intracellular p24 staining (X4 virus); assay type: cell-based; conditions: peptide at 1 μM
Procedure: (§4) Neutralization of HIV-1 infectivity for PBMC was performed as previously described by analysing intracellular staining of p24 Ag after a single round of infection. […] PHA-stimulated PBMC (25 μl, 2 × 10^5 cells/well) were added to the mixture. After overnight incubation, 100 μl of culture medium containing 20 U/ml of IL-2 were added and cells were cultured for an additional 24 h at 37°C. For intracellular p24 Ag staining, cells were fixed with 4% paraformaldehyde for 20 min, permeabilized with 0.05% saponin and stained with a fluorescent anti-p24 mAb (PE-anti-p24, KC57 clone, Beckman Coulter, Hialeah, FL) as a 1/160 dilution in 1% BSA, 0.05% saponin in PBS (pH = 7.4) for 15–20 min at 4°C. The percentage of p24 positive cells was monitored by flow cytometry (FACScalibur with the XL software) by gating 20,000 events on the living cell population identified by forward- and side-scatter parameters.

[4] = system: primary human CD4+ T cells; assay: Binding of peptides to CD4+ target cells (2F5 IgG, flow cytometry), primary cells; conditions: 1 h at room temperature, RPMI 10% FCS, micro-molar range
Procedure: as §1

[5] = system: T20-resistant HIV-1 strains (ENF-1 and ENF-2); assay: Single-cycle infectivity assay, T20-resistant strains, U373MG-CD4-CCR5-LTR-lacZ cells; assay type: cell-based; conditions: at concentrations as much as 250- to 2000-fold higher than the IC50 of P5
From the text: as §2, §3

HIV-1JRCSF (R5 virus) = assay type: cell-based; conditions: PBMC, peptide at 1 μM
Procedure: as §4

[6] = Far-UV circular dichroism, α-helical content; assay type: physicochemical; conditions: 10 μM in PBS
Procedure: Far-UV circular dichroism (CD) was performed using 10 μM of each peptide solution in PBS. Each spectrum was recorded from 260 nm to 190 nm at 25°C by using a Jasco CD spectrophotometer (Jasco, Japan) with a cell path length of 0.05 cm. Spectra were collected as an average of three scans, with a scan speed of 20 nm/min and a response time of 2 sec. The control (solvent) CD spectra were subtracted to eliminate background effects. Data were reported in millidegrees and converted to molar ellipticity [θ] in units as follows: degree cm^2 dmol^-1. The percentage of α-helical content was estimated by assuming that a [θ]222 value of -33000 deg cm^2 dmol^-1corresponds to 100% α-helix.
CD spectroscopy is a practical and efficient method for secondary structure characterization of a protein or peptide.
Far-UV CD spectra were all recorded at room temperature, with a path-length of 0.05 cm. Peptide concentration was 10 microM in PBS, pH 7.2.

[7] = system: HIV-Lai env mediated fusion of Hela-env-Lai cells with HeLa P4.2 (Hela-CD4-LTR-LacZ) cells; assay: HIV-1 env-mediated cell-to-cell fusion assay (β-galactosidase read-out); assay type: cell-based; conditions: for IC50: 6 h co-culture at 37°C, DMEM with calcium, others chemically synthesized; for inhibition of cell-cell fusion: peptide at 1 μM
Procedure: Fifteen minutes later, target cells (HeLa P4.2) were added to the wells (10^5 per well) and co-cultured for 6 h at 37°C. Then, cell-cell fusion was monitored by beta-galactosidase assay. Briefly, cells were lysed in 80 μl of lysis buffer (5% NP40 in PBS without CaCl2 and MgCl2) for 10 min and then centrifuged at 10,000 g for 5 min at 4°C. Equal volumes (50 μl) of lysate and reaction buffer (120 mM Na2HPO4, 80 mM NaH2PO4, 2 mM MgSO4, 20 mM KCl, 10 mM β-mercaptoethanol, 16 mM CPRG (chlorophenol red-β-D-galactopyranoside, Roche, France) were combined and incubated for 60 min at room temperature in the dark. The absorbance at 590 nm of each sample was measured.
Cell fusion experiments are convenient assays for analysis of the mechanism by which peptides inhibit virus entry into host cells. Hela-CD4-LTR-LacZ (P4.2) cells stably express the human CD4 molecule, CXCR4 and long terminal repeat (LTR) driven lacZ gene. Hela-env-Lai cells stably express HIV-Lai envelope glycoproteins gp120 and gp41, and the HIV-1 transactivator Tat. Fusion of Hela-Env-Lai cells and P4.2 cells results in transferring Tat to P4.2 cell cytosol. Tat in turn, transactivates the LTR and initiates transcription of the lacZ gene. The extent of fusion is directly related to β-galactosidase activity in cell lysates.
Different concentrations (≤ 1 μM) of peptides were incubated with HeLa-env-Lai cells in culture medium (DMEM) that contained calcium and magnesium, prior to addition of the P4.2 cells.

Substance | [θ]222 [1] | binding to CD4+ lymphocyte cell line CEM (in words) [2] | activity against T20-sensitive strains (in words) [3] | inhibitory activity, X4 virus infection (HIV-1Lai (X4 virus); PBMC) | inhibition of PBMC infection by X4 virus (in words) (HIV-1Lai (X4 virus); human PBMC, HIV-Lai) | binding to primary human CD4+ T cells (in words) [4] | inhibition of T20-resistant strains (in words) [5] | inhibitory activity, R5 virus infection (HIV-1JRCSF (R5 virus)) | [θ]222 ([6]; Table 1, chemically synthesized peptides alone or with LZ) | IC50 ([7]; Table 2, right column, alone or in the presence of LZ, P7 recombinant, read-out: IC50 (nM, Mean ± S.D.)) [nM] | inhibition of cell-cell fusion [7] | [θ]222 ([6]; Table 1, left column, chemically synthesized peptides alone or with N36) | IC50 ([7]; Table 2, left column, peptides 50 to 1000 nM, P5L recombinant, read-out: IC50g (nM, Mean ± S.D.)) [nM]
Enfuvirtide | -2 10^-3deg cm^2dmol^-1 | unable to bind | active | greater than 90% | potent inhibition | unable to bind | failed to inhibit | greater than 90% | – | – | – | – | –
LZ: peptide comprising the gp41 N-terminal leucine zipper domain, a.a. 560–594 (EAQQHLLQLTVWGIKQLQARILAVERYLKDQQLLG; gp41; UniProt P04578 560-594, looked up, fragment) | – | – | – | – | – | – | – | – | -4 10^-3deg cm^2dmol^-1 | > 1000 | negligible inhibition | – | –
N36: gp41 NHR peptide a.a. 546–581, from the AIDS Research and Reference Reagent Program [Peptide N36] | – | – | – | – | – | – | – | – | – | – | negligible inhibition | -6 10^-3deg cm^2dmol^-1 | > 1000
